In doi:10.1101/2025.11.04.686469, “Discovery of Host-Directed Small Molecules with Broad Anti-Leishmanial Efficacy” (bioRxiv, 2025):

How the values were obtained:
[1] = tested on: intracellular L. donovani amastigotes; assay: Luminescent-based evaluation of intracellular anti-leishmanial activity in THP-1 macrophages; type: cell-based, Leishmania donovani; conditions: intracellular Leishmania donovani in THP1 macrophages, luminescence assay (Supplemental Table 2); read-out: Lum IC50
Procedure, shortened: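 PMA-differentiated THP-1 macrophages (150 nM, 72 h) were infected 18 h with firefly luciferase-expressing L. donovani LV82 promastigotes, then washed. Infected cells were treated with compounds at 0.1-10 μM for 72 h. Surviving intracellular amastigotes were quantified by firefly luciferase luminescence after cell lysis and 10 min substrate incubation at room temperature.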

THP-1 macrophages = assay: Effect of compounds on host cell viability (MTT); type: cell-based; conditions: read-out: 24h LC50; THP1 macrophages, 24-hour incubation, MTT assay (Supplemental Table 2)
Procedure, shortened: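 Viability was read as MTT reduction: 2 h with 0.5 mg/mL, formazan dissolved in isopropanol, A560 with 670 nm background subtracted. The macrophages were PMA-differentiated THP-1 cells (150 nM, 72 h), treated 24 h at 1–50 μM or, for some compounds, 72 h at 1–300 μM.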

| Compound | IC50 [1] [µM] | CC50 (THP-1 macrophages) [µM] |
| --- | --- | --- |
| CC(C)(C)OC(=O)NC1CCN(c2ccc(-n3cc(C(F)(F)F)nc3-c3ccc(-c4ccccc4)cc3)cc2)C1 (stereo not drawn) [Compound 82] | > 10 | > 50 |
| FC(F)(F)c1cc(C2CCCCC2)n(-c2ccc(Br)cc2)n1 [Compound 215] | > 10 | > 50 |
| O=[N+]([O-])c1ccc(-c2cc(C(F)(F)F)nn2-c2ccc(Br)cc2)cc1 [Compound 143] | > 10 | > 50 |
| Fc1cccc(CN2CC(Nc3ccc(-n4nc(C(F)(F)F)cc4C4CCCCC4)cc3)C2)c1 [Compound 396] | 6.1 | 23.3 |
| FC(F)(F)C#Cc1ccc(-c2cc(C(F)(F)F)nn2-c2ccc(N3CCNCC3)cc2)cc1 [Compound 93] | > 10 | 40 |
| CC(=O)c1ccc(-c2ccc(C(F)(F)F)cc2)cc1 [Compound 5] | 2.3 | 13.3 |
| FC(F)(F)c1ccc(-c2ccc(-c3cc(C(F)(F)F)nn3-c3ccc(NC4CCN(Cc5ccc(Cl)c(C(F)(F)F)c5)C4)cc3)cc2)cc1 (stereo not drawn) [Compound 126] | > 10 | > 50 |
| FC(F)(F)c1ccc(-c2ccc(-c3cc(C(F)(F)F)nn3-c3ccc(NC4CN(Cc5ccccc5)C4)cc3)cc2)cc1 [Compound 113] | > 10 | 19 |
| NC1CCN(c2ccc(-n3nncc3-c3ccc(C(F)(F)F)cc3)cc2)C1 (stereo not drawn) [Compound 204] | > 10 | 37.2 |
| CC(C)(C)c1ccc(-c2nc(C(F)(F)F)cn2-c2ccc(NC(=O)CN)cc2)cc1 [Compound 157] | > 10 | 27.6 |
| FC(F)(F)c1cc(-c2ccc(C#CC3CC3)cc2)n(-c2ccc(N3CCNCC3)cc2)n1 [Compound 42] | 4.2 | 0.7 |
| NCC(=O)Nc1ccc(-c2cc(C(F)(F)F)nn2-c2ccc(-c3ccc(C(F)(F)F)cc3)cc2)cc1 [Compound 155] | 4 | 6.1 |
| FC(F)(F)c1cc(C2CCCCC2)n(-c2ccc(NC3CCN(Cc4ccccc4)CC3)cc2)n1 [Compound 321] | 5.1 | 23.9 |
| FC(F)(F)c1cc(-c2ccc(-c3ccccc3)cc2)n(-c2ccc(NCCc3ccccc3)cc2)n1 [Compound 62] | > 10 | > 50 |
| CC(C)(C)OC(=O)NCC(=O)Nc1ccc(-n2cc(C(F)(F)F)nc2-c2ccc(-c3ccc(C(F)(F)F)cc3)cc2)cc1 [Compound 77] | > 10 | > 50 |
| O=C(Nc1ccc(-n2cc(C(F)(F)F)nc2-c2ccc(-c3ccccc3)cc2)cc1)C1CCCN1Cc1ccccc1 (stereo not drawn) [Compound 85] | > 10 | > 50 |
| FC(F)(F)c1ccc(-c2ccc(-c3cc(C(F)(F)F)nn3-c3ccc(NCCCCOc4ccccc4)cc3)cc2)cc1 [Compound 68] | > 10 | 34.7 |
| FC(F)(F)c1cc(-c2ccncc2)n(-c2ccc(Br)cc2)n1 [Compound 213] | > 10 | > 50 |
| O=[N+]([O-])c1ccc(-n2cc(C(F)(F)F)nc2-c2ccc(-c3ccc(C(F)(F)F)cc3)cc2)cc1 [Compound 154] | 2.9 | 25.5 |
| CC(C)(C)OC(=O)N1CCC(Oc2ccc(-n3nc(C(F)(F)F)cc3-c3ccc(-c4ccc(C(F)(F)F)cc4)cc3)cc2)C1 (stereo not drawn) [Compound 142] | > 10 | > 50 |

| Compound | IC50 [1] [µM] | CC50 (THP-1 macrophages) [µM] |
| --- | --- | --- |
| FC(F)(F)c1ccc(-c2ccc(-c3cc(C(F)(F)F)nn3-c3ccc(NC4CNC4)cc3)cc2)cc1 [Compound 3] | 1.8 | 11 |
| O=C(CNCc1ccccc1)Nc1ccc(-n2nc(C(F)(F)F)cc2C2CCCCC2)cc1 [Compound 353] | 4.2 | 17.5 |
| FC(F)(F)c1ccc(-c2ccc(-c3nc(C(F)(F)F)cn3-c3ccc(NC4CCNC4)cc3)cc2)cc1 (stereo not drawn) [Compound 246] | 3.8 | 5.5 |
| CC(C)C#Cc1ccc(-c2cc(C(F)(F)F)nn2-c2ccc([N+](=O)[O-])cc2)cc1 [Compound 94] | > 10 | 29 |
| NC1CCN(c2ccc(-n3nc(C(F)(F)F)c4ccc(-c5ccc(C(F)(F)F)cc5)cc43)cc2)C1 (stereo not drawn) [Compound 141] | 3.6 | 7.7 |
| O=[N+]([O-])c1ccc(-n2nc(C(F)(F)F)cc2-c2ccc(-c3ccc(S(F)(F)(F)(F)F)cc3)cc2)cc1 [Compound 103] | > 10 | > 50 |
| NC(Cc1ccccc1)C(=O)Nc1ccc(-n2cc(C(F)(F)F)nc2-c2ccc(-c3ccc(C(F)(F)F)cc3)cc2)cc1 (stereo not drawn) [Compound 80] | 3 | 8.2 |
| O=C(CCCCBr)N1CCC(Nc2ccc(-n3nc(C(F)(F)F)cc3-c3ccc(-c4ccc(C(F)(F)F)cc4)cc3)cc2)CC1 [Compound 117] | 6.1 | > 50 |
| Fc1cccc(CNC2CCN(c3ccc(-n4nc(C(F)(F)F)cc4C4CCCCC4)cc3)CC2)c1 [Compound 337] | 3.5 | 32.1 |
| FC(F)(F)c1cn(-c2ccc(Br)cc2)c(-c2ccc(-c3ccccc3)cc2)n1 [Compound 81] | > 10 | > 50 |
| CCc1cc(C(F)(F)F)nn1-c1ccc(NC2CCNC2)cc1 (stereo not drawn) [Compound 318] | 1.8 | 27 |
| NC1CCN(c2ccc(-n3ccnc3-c3ccc(-c4ccccc4)cc3)cc2)C1 (stereo not drawn) [Compound 83] | 1.8 | 6.2 |
| FC(F)(F)c1ccc(-c2ccc(-c3cc(C(F)(F)F)nn3-c3ccc(NC4CC(Cc5ccc(Cl)cc5)C4)cc3)cc2)cc1 (stereo not drawn) [Compound 66] | > 10 | > 50 |
| CC(C)c1cc(C(F)(F)F)nn1-c1ccc(NC2CCNC2)cc1 (stereo not drawn) [Compound 315] | 3.3 | 25.1 |
| NC1CCN(c2ccc(-n3nc(C(F)(F)F)cc3-c3ccc(-c4ccc(C(F)(F)F)cc4)cc3)cc2)CC1 [Compound 73] | 2.7 | 4.8 |
| O=[N+]([O-])c1cccc(-n2nc(C(F)(F)F)cc2-c2ccc(-c3ccc(C(F)(F)F)cc3)cc2)c1 [Compound 189] | > 10 | > 50 |
| NCCCNC1CCN(c2ccc(-n3nc(C(F)(F)F)cc3C3CCCCC3)cc2)CC1 [Compound 420] | 1 | 7 |
| CC(C)C#Cc1ccc(-c2cc(C(F)(F)F)nn2-c2ccc(N)cc2)cc1 [Compound 95] | > 10 | > 50 |
| FC(F)(F)c1cn(-c2ccc(NCc3ccccc3)cc2)c(-c2ccc(-c3ccccc3)cc2)n1 [Compound 87] | 6.7 | > 50 |
| O=C(CNCc1ccc(O)cc1)Nc1ccc(-n2nc(C(F)(F)F)cc2C2CCCCC2)cc1 [Compound 355] | 2 | 21.2 |

| Compound | IC50 [1] [µM] | CC50 (THP-1 macrophages) [µM] |
| --- | --- | --- |
| FC(F)(F)c1cc(C2CCCCC2)n(-c2ccc(N3CCC(NCc4ccccc4)C3)cc2)n1 (stereo not drawn) [Compound 364] | 6.8 | 31.1 |
| c1cn(-c2ccc3nonc3c2)cn1 [Compound 207] | > 10 | > 50 |
| CC(C)(C)c1ccc(-c2nc(C(F)(F)F)cn2-c2ccc(N)cc2)cc1 [Compound 149] | 9.1 | 28.8 |
| FC(F)(F)c1cc(C2CCCCC2)n(-c2ccc(NC3CCN(Cc4ccccc4)C3)cc2)n1 (stereo not drawn) [Compound 356] | 2 | 15.5 |
| NC1CCN(c2ccc(-n3nc(C(F)F)cc3-c3ccc(-c4ccc(C(F)(F)F)cc4)cc3)cc2)C1 (stereo not drawn) [Compound 281] | 2 | 14.3 |
| NCCCCCOc1ccc(CN2CCC(Oc3ccc(-n4nc(C(F)(F)F)cc4C4CCCCC4)cc3)CC2)cc1 [Compound 432] | 2.9 | 5.6 |
| CC(C)C#Cc1ccc(-c2cc(C(F)(F)F)nn2-c2ccc(Br)cc2)cc1 [Compound 96] | > 10 | 37.5 |
| CC(=O)NCCCNC1CCN(c2ccc(-n3nc(C(F)(F)F)cc3C3CCCCC3)cc2)CC1 [Compound 421] | 1.5 | 19 |
| Fc1cccc(CN2CCN(c3ccc(-n4nc(C(F)(F)F)cc4-c4ccc(-c5ccc(C(F)(F)F)cc5)cc4)cc3)CC2)c1 [Compound 222] | > 10 | > 50 |
| N#Cc1ccc(-n2cc(C(F)(F)F)nc2-c2ccc(-c3ccccc3)cc2)cc1 [Compound 180] | > 10 | > 50 |
| NCC(=O)Nc1ccc(-n2cnc3ccccc32)cc1 [Compound 150] | > 10 | > 50 |
| CC(C)(C)OC(=O)NC1CCN(c2ccc(-n3nc(C4CCCCC4)cc3C(F)(F)F)cc2)C1 (stereo not drawn) [Compound 229] | 3.4 | 5 |
| FC(F)(F)c1ccc(-c2ccc(-c3cc(C(F)(F)F)nn3-c3ccc(N4CCC(NC5CCCCCC5)C4)cc3)cc2)cc1 (stereo not drawn) [Compound 69] | 5.5 | 12.4 |
| CC(C)(C)c1ccc(-c2nc(C(F)(F)F)cn2-c2ccc([N+](=O)[O-])cc2)cc1 [Compound 146] | 4.4 | > 50 |
| Cc1nn(-c2ccc(Br)cc2)c2ccccc12 [Compound 132] | > 10 | > 50 |
| CC(C)C#Cc1ccc(-c2cc(C(F)(F)F)nn2-c2ccc(N3CCC(NCc4ccccc4)C3)cc2)cc1 (stereo not drawn) [Compound 99] | > 10 | 29.2 |
| FC(F)(F)c1ccc(-c2ccc(-c3cc(C(F)(F)F)nn3-c3ccc(N4CCC(NCc5ccccc5)CC4)cc3)cc2)cc1 [Compound 89] | 4 | 8 |
| CC(C)(C)c1cc(C(F)(F)F)nn1-c1ccc(N2CCC(N)C2)cc1 (stereo not drawn) [Compound 203] | 2.9 | 11.8 |
| FC(F)(F)c1ccc(-c2ccc(-c3cc(C(F)(F)F)nn3-c3ccc(NC4CCNCC4)cc3)cc2)cc1 [Compound 65] | 2.3 | 4 |
| FC(F)(F)c1cc(C2CCCCC2)n(-c2ccc(N3CCC(NCc4ccccc4)CC3)cc2)n1 [Compound 336] | 2.4 | 15.9 |
